Residue numbers refer to the chain shown, from its start.
What was measured:
[1] = target: T1, full length human estrogen receptor a (Homo sapiens, UniProt P03372); test: Competitive radiometric binding assay (RBA), tritiated estradiol tracer; conditions: relative to estradiol = 100; average SD of 2-3 determinations
T1 construct: purified, full-length human estrogen receptor a from Invitrogen; purchased Invitrogen
T1 sequence (P03372 1-595): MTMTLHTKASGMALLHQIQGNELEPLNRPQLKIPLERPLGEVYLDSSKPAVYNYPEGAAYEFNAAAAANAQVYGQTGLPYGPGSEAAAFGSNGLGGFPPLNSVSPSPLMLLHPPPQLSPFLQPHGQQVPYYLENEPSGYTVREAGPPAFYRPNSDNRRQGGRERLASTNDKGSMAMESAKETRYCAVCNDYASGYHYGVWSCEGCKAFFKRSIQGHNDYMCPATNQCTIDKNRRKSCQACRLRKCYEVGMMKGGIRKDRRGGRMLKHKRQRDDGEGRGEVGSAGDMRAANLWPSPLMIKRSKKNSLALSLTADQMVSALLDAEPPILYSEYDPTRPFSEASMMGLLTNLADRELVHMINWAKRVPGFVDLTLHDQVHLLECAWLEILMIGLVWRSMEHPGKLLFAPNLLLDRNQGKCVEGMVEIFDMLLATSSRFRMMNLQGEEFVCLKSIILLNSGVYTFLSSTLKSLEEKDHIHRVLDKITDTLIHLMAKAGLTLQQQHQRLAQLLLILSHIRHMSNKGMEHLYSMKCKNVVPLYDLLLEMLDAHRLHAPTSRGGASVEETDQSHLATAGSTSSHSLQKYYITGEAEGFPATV
Protocol: Tritiated estradiol was obtained from Perkin Elmer and purified, full-length human estrogen receptor a from Invitrogen.
Competitive radiometric binding assays (RBA) were performed on 96-well microtiter filter plates (Millipore), using full length human estrogen receptor a, with tritiated estradiol as tracer, as previously described (Carlson K E, Choi I, Gee A, Katzenellenbogen B S, Katzenellenbogen J A. Altered ligand binding properties and enhanced stability of a constitutively active estrogen receptor: evidence that an open pocket conformation is required for ligand interaction. Biochemistry 1997, 36(48), 14897-14905). After incubation on ice for 18-24 h, ERα-bound tracer was absorbed onto hydroxyapatite (BioRad), washed with buffer, and measured by scintillation counting. RBA values are the average SD of 2-3 determinations.

MCF7 = test: Luciferase assay in MCF7; type: cell-based; design: concentration or dose not given beside the values
Protocol: (§1) Luciferase assays were performed to determine the efficacy of the example compounds at inhibiting ER or its mutants' ability to activate transcription of genes.
(§2) Cells were plated at a density of 0.15×10^6 per well of 24 well plates one day prior to transfection. Cells were transfected with 125 ng (per well) of HA-ERα wild type or mutants, 315 ng (per well) of 3×-ERE-TATA-Luciferase reporter and 50 ng (per well) of pRL-TK Renilla Luciferase plasmid, using Xtremegene (Roche). The cells were treated with the various compounds or Fulvestrant at the indicated doses a day after transfection for 24 hours and luciferase activities were determined using the Dual-Luciferase® Reporter Assay System (Promega) according to manufacturer's instructions. Luciferase bioluminescence measurements were performed with the Veritas™ Microplate Luminometer (Promega). All experiments were conducted in triplicate and the Firefly luciferase activity was normalized with the Renilla luciferase activity of each sample.

HA-ERα D538G = target: T2, HA-ERα D538G (Homo sapiens, UniProt P03372, D538G); test: Luciferase assay, overexpressed ER (3×-ERE-TATA-Luciferase reporter); type: cell-based; conditions: compound concentration 1 μM, 24 hours
T2 construct: HA; expressed in transfected cells
T2 sequence (P03372 1-595 D538G): T1 sequence (P03372 1-595) with D538G
Protocol: as §1, §2

HA-ERα wild type = target: T3, HA-ERα wild type (Homo sapiens, UniProt P03372); test: as above; type: cell-based; conditions: compound concentration 1 μM, 24 hours; read-out: Overexpressed ER (% Inhibition) WT
T3 construct: HA; expressed in transfected cells
T3 sequence (P03372 1-595): T1 sequence (P03372 1-595)
Protocol: as §1, §2

HA-ERα Y537S = target: T4, HA-ERα Y537S (Homo sapiens, UniProt P03372, Y537S); test: as above; type: cell-based; conditions: compound concentration 1 μM, 24 hours
T4 construct: HA; expressed in transfected cells
T4 sequence (P03372 1-595 Y537S): T1 sequence (P03372 1-595) with Y537S
Protocol: as §1, §2

| Compound | RBA (estradiol = 100) [1] | MCF7 (% Inhibition) (MCF7) [%] | inhibition at 1 µM (HA-ERα D538G) [%] | inhibition at 1 µM (HA-ERα wild type) [%] | inhibition at 1 µM (HA-ERα Y537S) [%] |
| --- | --- | --- | --- | --- | --- |
| O=C(NCCCCOc1ccc(C(=C2C3CC4CC(C3)CC2C4)c2ccc(O)cc2)cc1)C1CCC1 [Example 10, N-(4-(4-(Adamantan-2-ylidene(4-hydroxyphenyl)methyl)phenoxy)butyl)-cyclobutanecarboxamide] | 70 ± 1 | 66 | 89 | 84 | 11 |
| O=C(NCCCCOc1ccc(C(=C2C3CC4CC(C3)CC2C4)c2ccc(O)cc2)cc1)C1CCC(F)(F)CC1 [Example 13, N-(4-(4-(Adamantan-2-ylidene(4-hydroxyphenyl)methyl)phenoxy)butyl)-4,4-difluorocyclohexanecarboxamide] | 30 ± 0.1 | 80 | 92 | 90 | 46 |
| O=C(NCCCCOc1ccc(C(=C2C3CC4CC(C3)CC2C4)c2ccc(O)cc2)cc1)C1CCCCCC1 [Example 12, N-(4-(4-(Adamantan-2-ylidene(4-hydroxyphenyl)methyl)phenoxy)butyl)-cycloheptanecarboxamide] | 30 ± 5 | 82 | 92 | 90 | 58 |
| O=C(NCCCCOc1ccc(C(=C2C3CC4CC(C3)CC2C4)c2ccc(O)cc2)cc1)C12CC3CC(CC(C3)C1)C2 [Example 6, N-(4-(4-(Adamantan-2-ylidene(4-hydroxyphenyl)methyl)phenoxy)-butyl)adamantane-1-carboxamide] | 11 ± 3 | 70 | 87 | 84 | 62 |
| O=C(NCCCCOc1ccc(C(=C2C3CC4CC(C3)CC2C4)c2ccc(O)cc2)cc1)[C@H]1C[C@@H]2C=C[C@H]1C2 [Example 9, (1R, 2S, 4R)—N-(4-(4-(Adamantan-2-ylidene(4-hydroxyphenyl)methyl)phenoxy)-butyl)bicyclo[2.2.1]hept-5-ene-2-carboxamide] | 37 ± 0.3 | 73 | 92 | 88 | 33 |
| O=C(NCCCCOc1ccc(C(=C2C3CC4CC(C3)CC2C4)c2ccc(O)cc2)cc1)[C@H]1CC[C@H](C(F)(F)F)CC1 [Example 14, (trans)-N-(4-(4-(Adamantan-2-ylidene(4-hydroxyphenyl)methyl)phenoxy)-butyl)-4-(trifluoromethyl)cyclohexanecarboxamide] | 10 ± 0.4 | 72 | 88 | 81 | 26 |
| O=C(NCCCCOc1ccc(C(=C2C3CC4CC(C3)CC2C4)c2ccc(O)cc2)cc1)C1CCCCC1 [Example 11, N-(4-(4-(Adamantan-2-ylidene(4-hydroxyphenyl)methyl)phenoxy)butyl)-cyclohexanecarboxamide] | 28 ± 6 | 84 | 91 | 89 | 86 |
| CC12CC3CC(C)(C1)CC(C(=O)NCCCCOc1ccc(C(=C4C5CC6CC(C5)CC4C6)c4ccc(O)cc4)cc1)(C3)C2 [Example 7, N-(4-(4-(Adamantan-2-ylidene(4-hydroxyphenyl)methyl)phenoxy)butyl)-3,5-dimethyladamantane-1-carboxamide] | 6.0 ± 0.1 | 53 | 83 | 83 | 46 |
| CC(C)(C)OC(=O)N[C@@H](Cc1c[nH]c2ccccc12)C(=O)NCCCCOc1ccc(C(=C2C3CC4CC(C3)CC2C4)c2ccc(O)cc2)cc1 [Example 1, (S)-tert-Butyl (1-((4-(4-(adamantan-2-ylidene(4-hydroxyphenyl)methyl)-phenoxy)butyl)amino)-3-(1H-indol-3-yl)-1-oxopropan-2-yl)carbamate] | 20 ± 6 | 71 | 84 | 71 | 62 |
| O=C(NCCCCOc1ccc(C(=C2C3CC4CC(C3)CC2C4)c2ccc(O)cc2)cc1)C12CC3CC(CC1C3)C2 [Example 8, N-(4-(4-((Adamantan-2-ylidene)(4-hydroxyphenyl)methyl)phenoxy)butyl)-hexahydro-2,5-methanopentalene-3a(1H)-carboxamide] | 17 ± 2 | 77 | 89 | 83 | 31 |
